In patent publication US6379959B1, “Metalocarboxypeptidase inhibitors and derived molecules used as antitumor agents” (Universitat Autonoma de Barcelona, priority 1996, dated 2002):
Positions of bridges follow the written chain, without caps; N, C: chain ends. No end group written: not given here.

Tested on: human pancreatic adenocarcinoma cell line Capan-1
Assay: Proliferation test with tetrazolium salts, Capan-1 in medium with serum
Format: cell-based
Conditions: 23 days
Experimental: In this test, with the aim of determining whether the presence of PCI in the culture medium produces some effect on the growth in vitro of the cellular lines, the final amount of cells was evaluated after a specific number of days, in presence and absence of inhibitor. The final number of cells was determined by means of tetrazolium salts (kit EZ4U) which, being added to the cultures, are reduced by mitochondrial enzymes of the cells, producing derivatives of formazan of a different colour. The amount of formed derivatives depends on the number of existing cells.
1. In a culture plate of 96 wells, in 48 of them, 5,000 cells were seed. Of these 48:
In 8 wells (control), 200 μL of full medium (DMEM+10%FBS) were added without PCI. […]
2. The cells were kept in an incubator at 37° C., 87% of relative humidity and 10% of CO2. The medium contained in the wells was changed every 3-4 days. The old medium was sucked out with a Pasteur pipette. Medium free of PCI was added to the control wells and, to the others, a medium with identical concentration of PCI to which they had previously, was also added.
3. After a specific number of days, the number of cells per well was evaluated by means of the following procedure:
To calculate the result of the test, the following was done: the average of the A620 of the blank ones was substracted from the A620 of each well. Immediately after, the result of the previous subtraction, as well as the average of the A450 of the blank ones was substracted from the A450 of each well. The result thus obtained is directly proportional to the amount of cells present in the well. Next, the average and the typical deviation was obtained from the results of the wells which had undergone identical treatment.
The effect of the presence of the PCI can be expressed employing the cell growth percentage in relation to the controls (without PCI) which is easily calculated: [formula]
A proliferation test with indirect determination of the number of cells by means of tetrazolium salts using the cell line Capan-1 was carried out. This is a human pancreatic adenocarcinoma cell line (ATCC nr. HTB-79), established by Fogh, G. et al. (1977) J. Natl. Cancer Inst., 58: 209-214, and Fogh, J. et al. (1977) J. Natl. Cancer Inst., 59: 221-226, from a liver metastasis.
As it has been explained, the cells were cultivated for 23 days, after which the cell growth was evaluated per well by means of tetrazolium salts. The results obtained are expressed in Table 3, where the average, the standard deviation and the standard error of the cell growth in relation to the controls are shown.

PCI: potato carboxypeptidase inhibitor, isoform IIa, obtained by recombinant DNA techniques in E. coli (SEQ ID NO.2) (EQHADPICNKPCKTHDDCSGAWFCQACWNSARTCGPYVG; disulfide 12-27, 18-34, 8-24)
Growth (Percentage in relation to the average of the controls) (0.1 µg/mL PCI in the medium, DMEM+10%FBS): 19.4%
Growth (Percentage in relation to the average of the controls) (1 µg/mL PCI in the medium): 17.1%
Growth (Percentage in relation to the average of the controls) (10 µg/mL PCI in the medium): 50.0%
Growth (Percentage in relation to the average of the controls) (50 µg/mL PCI in the medium): 44.8%
Growth (Percentage in relation to the average of the controls) (200 µg/mL PCI in the medium): 43.3%
inhibition of the growth (concentrations of 0.1 and 1 μg/mL): higher than 80%
inhibition of the growth (concentrations of 10, 50 and 200 μg/mL): ~50%
